Results as given in publication PMC4728661, “Cancer Prevention and Health Benefices of Traditionally Consumed Borago officinalis Plants” (Nutrients, 2016).
Values joined by “and” are separate entries in the source; they are usually repeats but may differ in a detail not shown here. Identical values can stand only once. Marks after values point to notes of the source that are not given here.

Experiments:
D. melanogaster [1] = assay: Toxicity: survival of Drosophila larvae to emerged adults, simple and combined (H2O2) treatments; format: in vivo, Drosophila melanogaster
Experimental: Optimal fertile flies were anesthetized under CO2 narcotisation for cross selection and then placed in new vials for fertilization. After that, hybrid eggs from crossing were collected over an 8 h period and emerged larvae (72 ± 4 h later) were cleaned up for a few seconds in sterile distilled water to remove feeding medium rests. […] Bioactive compound concentrations were chosen on the basis of their known content in B. officinalis species. […] Larvae were fed on these media until pupation (about 48 h). After emergence, resulting adult flies were sacrificed under CO2 narcotisation and stored in a 70% ethanol solution in sterile water. […] The determination of Toxicity (T) of treatments in D. melanogaster was performed following this formula [39]: T = (N° of emerging individuals in treatment/N° of emerging individuals in the negative control) × 100(1) Differences in D. melanogaster survival between treatments at each concentration with respect to negative control were analyzed with a Chi-square test. This procedure was also performed for the analysis of each simple treatment with their correspondent combined treatment.

HL-60 cells = assay: Cytotoxicity: HL-60 growth/viability, Trypan Blue dye exclusion; format: cell-based, human; settings: 72 h
Experimental: The human acute promyelocytic leukemia cell line HL-60 was routinely grown in suspension in RPMI medium (Invitrogen, Madrid, Spain) containing glutamine ([…], Sigma-Aldrich, St. Louis, MO, USA), antibiotics (100IU penicillin mL^−1 and 100 μg streptomycin mL^−1, Sigma-Aldrich) and supplemented with 10% heat-inactivated foetal bovine serum (Linus, Cultek, Madrid, Spain) and placed in an incubator (Shel Lab, Cornelious, OR, USA) with a 5% CO2 humidified atmosphere at 37 °C [36]. HL-60 cells were subcultured every 2–3 days to maintain logarithmic growth and they were allowed to grow for 48 h before use. Cultures were plated at a density of 12.5 × 10^4 cells mL^−1 in 40 mL culture flasks (25 cm^2). Cytotoxic activity was measured as growing inhibition or decreased viability on HL-60 cells following a previous protocol modified by us. […] Cells were counted after 72 h treatment. Tested concentrations were calculated according to those used for in vivo assays to equal the range of tested doses. Untreated cultures were used as negative control. Cell viability was determined by the Trypan Blue dye exclusion test. Cells were stained with an equal volume of Trypan Blue commercial solution (Sigma-Aldrich) and counted using a hemocytometer at room temperature under a light inverted microscope (AE30/31, Motic, Barcelona, Spain). Cytotoxic effect evaluation was determined after each culture incubation period, establishing a growth curve and determining IC50 values by regression analysis of the curves. Viability estimated regressions of leukemia cells are presented as a survival percentage with respect to controls at 72 h growth and plotted as mean viability ± standard error of at least three independent replicas for each treatment and concentration.

D. melanogaster [2] = assay: Antigenotoxicity: SMART, combined treatments with H2O2 0.12 M; format: in vivo, Drosophila melanogaster; for Diagnosis, Large Single Spots >2 Cells m = 5: key: + (positive); − (negative); for Diagnosis, Small Single Spots 1–2 Cells m = 2: key: + (positive); − (negative); for Diagnosis, Total Spots m = 2: key: + (positive); − (negative); for Diagnosis, Twin Spots m = 5: key: + (positive); − (negative)
Experimental: The D. melanogaster system was selected for the determination of the safety of B. officinalis consumption as a well-recognized method to analyze vegetable complex mixtures using SMART [31, 32]. This test was used in order to evaluate the genotoxic and antigenotoxic activity of B. officinalis leaves and petioles as well as their selected bioactive compounds [33]. This activity was measured by direct visualization of the occurrence of recessive mutations in the wing hairs of two different D. melanogaster strains. Flies from experiments carried these visible wing genetic markers: the flare (flr) strain […]) TM3, Bd^s and the multiple wing-hair (mwh) strain […] [35]. The marker flare (flr^3, 3_38.3) produces individual malformed hairs and the marker multiple wing hairs (mwh, 3_0.3) produces multiple hairs per cell. Larvae used in treatments come from two types of crosses: the standard cross with flr^3/TM3, Bd^S females mated to […] and the reciprocal cross. Optimal fertile flies were anesthetized under CO2 narcotisation for cross selection and then placed in new vials for fertilization. After that, hybrid eggs from crossing were collected over an 8 h period and emerged larvae (72 ± 4 h later) were cleaned up for a few seconds in sterile distilled water to remove feeding medium rests. […] Bioactive compound concentrations were chosen on the basis of their known content in B. officinalis species. […] Larvae were fed on these media until pupation (about 48 h). After emergence, resulting adult flies were sacrificed under CO2 narcotisation and stored in a 70% ethanol solution in sterile water. […] For the evaluation of genotoxic effects, the frequencies of spots per fly of each treated series were compared to the concurrent negative control for each class of mutational clone as well as between simple and combined treatments for the same concentration comparisons. […] A multiple-decision procedure was used to categorize results as positive, inconclusive or negative. Inconclusive and positive results were evaluated by the non-parametric U test of Mann, Whitney and Wilcoxon. The inhibition percentage (IP) of genotoxicity was calculated from the total frequencies of spots per wing, following this formula [42]: IP = (genotoxin alone - sample + genotoxin) × 100/(genotoxin alone)(2) Significant differences of IP for each treatment respect to the positive control were analyzed with a Chi-square test.

[3] = combined with 0.12 M H2O2, 0.16 mM SY
[4] = combined with 0.12 M H2O2, 0.32 mM SY
[5] = combined with 0.12 M H2O2, 0.63 mM SY
[6] = combined with 0.12 M H2O2, 1.26 mM SY
[7] = combined with 0.12 M H2O2, 0.35 mM RO
[8] = combined with 0.12 M H2O2, 0.7 mM RO
[9] = combined with 0.12 M H2O2, 1.39 mM RO
[10] = combined with 0.12 M H2O2, 2.78 mM RO

COc1cc(C(=O)O)cc(OC)c1O [SY, syringic acid]
Survival (D. melanogaster [1]; [3]): 31.11 *^,‡ % | Survival (D. melanogaster [1]; [4]): 29.33 *^,‡ % | Survival (D. melanogaster [1]; [5]): 20.44 *^,‡ % | Survival (D. melanogaster [1]; [6]): 36.89 *^,‡ % | Survival (D. melanogaster [1]; simple treatment, 0.16 mM SY): 39.78 * % | Survival (D. melanogaster [1]; simple treatment, 0.32 mM SY): 42.67 * % | Survival (D. melanogaster [1]; simple treatment, 0.63 mM SY): 31.11 * % | Survival (D. melanogaster [1]; simple treatment, 1.26 mM SY): 58.22 * % | Effect on HL-60 growth (HL-60 cells; 0.03–1 mM): did not affect HL-60 growth | Diagnosis, Small Single Spots 1–2 Cells m = 2 (D. melanogaster [2]; [3]): − | Diagnosis, Total Spots m = 2 (D. melanogaster [2]; [3]): − | Mutation rate, Large Single Spots >2 Cells m = 5 (D. melanogaster [2]; [3]): 0 spots/wing | Mutation rate, Small Single Spots 1–2 Cells m = 2 (D. melanogaster [2]; [3]): 0.23 (5) spots/wing | Mutation rate, Total Spots m = 2 (D. melanogaster [2]; [3]): 0.23 (5) spots/wing | Mutation rate, Twin Spots m = 5 (D. melanogaster [2]; [3]): 0 spots/wing | Diagnosis, Small Single Spots 1–2 Cells m = 2 (D. melanogaster [2]; [4]): − | Diagnosis, Total Spots m = 2 (D. melanogaster [2]; [4]): − | Mutation rate, Large Single Spots >2 Cells m = 5 (D. melanogaster [2]; [4]): 0 spots/wing | Mutation rate, Small Single Spots 1–2 Cells m = 2 (D. melanogaster [2]; [4]): 0.30 (3) spots/wing | Mutation rate, Total Spots m = 2 (D. melanogaster [2]; [4]): 0.30 (3) spots/wing | Mutation rate, Twin Spots m = 5 (D. melanogaster [2]; [4]): 0 spots/wing | Diagnosis, Small Single Spots 1–2 Cells m = 2 (D. melanogaster [2]; [5]): − | Diagnosis, Total Spots m = 2 (D. melanogaster [2]; [5]): − | Mutation rate, Large Single Spots >2 Cells m = 5 (D. melanogaster [2]; [5]): 0 spots/wing | Mutation rate, Small Single Spots 1–2 Cells m = 2 (D. melanogaster [2]; [5]): 0.28 (9) spots/wing | Mutation rate, Total Spots m = 2 (D. melanogaster [2]; [5]): 0.28 (9) spots/wing | Mutation rate, Twin Spots m = 5 (D. melanogaster [2]; [5]): 0 spots/wing | Diagnosis, Small Single Spots 1–2 Cells m = 2 (D. melanogaster [2]; [6]): − | Diagnosis, Total Spots m = 2 (D. melanogaster [2]; [6]): − | Mutation rate, Large Single Spots >2 Cells m = 5 (D. melanogaster [2]; [6]): 0 spots/wing | Mutation rate, Small Single Spots 1–2 Cells m = 2 (D. melanogaster [2]; [6]): 0.32 (7) spots/wing | Mutation rate, Total Spots m = 2 (D. melanogaster [2]; [6]): 0.32 (7) spots/wing | Mutation rate, Twin Spots m = 5 (D. melanogaster [2]; [6]): 0 spots/wing

O=C(/C=C/c1ccc(O)c(O)c1)O[C@H](Cc1ccc(O)c(O)c1)C(=O)O [RO, rosmarinic acid]
Survival average in combined treatments (D. melanogaster [1]; average of the four concentrations, combined with 0.12 M H2O2): 41.28 | Survival (D. melanogaster [1]; [7]): 49.56 * % | Survival (D. melanogaster [1]; [8]): 31.11 *^,‡ % | Survival (D. melanogaster [1]; [9]): 45.56 *^,‡ % | Survival (D. melanogaster [1]; [10]): 38.89 *^,‡ % | Survival (D. melanogaster [1]; simple treatment, 0.35 mM RO): 48.44 * % | Survival (D. melanogaster [1]; simple treatment, 0.7 mM RO): 22.22 * % | Survival (D. melanogaster [1]; simple treatment, 1.39 mM RO): 33.33 * % | Survival (D. melanogaster [1]; simple treatment, 2.78 mM RO): 21.33% and 21.33 * % | Viable HL-60 cells (HL-60 cells; RO (alone or in the mixture) at concentrations over 0.55 mM): no viable cells could be detected | Diagnosis, Small Single Spots 1–2 Cells m = 2 (D. melanogaster [2]; [7]): − | Diagnosis, Total Spots m = 2 (D. melanogaster [2]; [7]): − | Mutation rate, Large Single Spots >2 Cells m = 5 (D. melanogaster [2]; [7]): 0 spots/wing | Mutation rate, Small Single Spots 1–2 Cells m = 2 (D. melanogaster [2]; [7]): 0.17 (5) spots/wing | Mutation rate, Total Spots m = 2 (D. melanogaster [2]; [7]): 0.17 (5) spots/wing | Mutation rate, Twin Spots m = 5 (D. melanogaster [2]; [7]): 0 spots/wing | Diagnosis, Large Single Spots >2 Cells m = 5 (D. melanogaster [2]; [8]): − | Diagnosis, Small Single Spots 1–2 Cells m = 2 (D. melanogaster [2]; [8]): − | Diagnosis, Total Spots m = 2 (D. melanogaster [2]; [8]): − | Diagnosis, Twin Spots m = 5 (D. melanogaster [2]; [8]): − | Mutation rate, Large Single Spots >2 Cells m = 5 (D. melanogaster [2]; [8]): 0.08 (3) spots/wing | Mutation rate, Small Single Spots 1–2 Cells m = 2 (D. melanogaster [2]; [8]): 0.35 (14) spots/wing | Mutation rate, Total Spots m = 2 (D. melanogaster [2]; [8]): 0.45 (18) spots/wing | Mutation rate, Twin Spots m = 5 (D. melanogaster [2]; [8]): 0.03 (1) spots/wing | Diagnosis, Large Single Spots >2 Cells m = 5 (D. melanogaster [2]; [9]): − | Diagnosis, Small Single Spots 1–2 Cells m = 2 (D. melanogaster [2]; [9]): − | Diagnosis, Total Spots m = 2 (D. melanogaster [2]; [9]): − | Mutation rate, Large Single Spots >2 Cells m = 5 (D. melanogaster [2]; [9]): 0.14 (3) spots/wing | Mutation rate, Small Single Spots 1–2 Cells m = 2 (D. melanogaster [2]; [9]): 0.14 (3) spots/wing | Mutation rate, Total Spots m = 2 (D. melanogaster [2]; [9]): 0.27 (6) spots/wing | Mutation rate, Twin Spots m = 5 (D. melanogaster [2]; [9]): 0 spots/wing | Diagnosis, Small Single Spots 1–2 Cells m = 2 (D. melanogaster [2]; [10]): − | Diagnosis, Total Spots m = 2 (D. melanogaster [2]; [10]): − | Diagnosis, Twin Spots m = 5 (D. melanogaster [2]; [10]): − | Mutation rate, Large Single Spots >2 Cells m = 5 (D. melanogaster [2]; [10]): 0 spots/wing | Mutation rate, Small Single Spots 1–2 Cells m = 2 (D. melanogaster [2]; [10]): 0.21 (11) spots/wing | Mutation rate, Total Spots m = 2 (D. melanogaster [2]; [10]): 0.25 (13) spots/wing | Mutation rate, Twin Spots m = 5 (D. melanogaster [2]; [10]): 0.04 (2) spots/wing
